Measured values reported in PubChem BioAssay (NCI).
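Five concentrations, 48 hours, 96-well plates. TGI: concentration producing complete growth inhibition.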

Tests used:
Assay in all cases: inhibition of tumour cell growth, NCI panel, 48 h
SW-620 colon = tested on: SW-620 colon
NCI-H522 lung = tested on: NCI-H522 lung
HT29 colon = tested on: HT29 colon
HOP-62 NSCLC = tested on: HOP-62 NSCLC
M19-MEL melanoma = tested on: M19-MEL melanoma
M14 melanoma = tested on: M14 melanoma
DMS 273 small cell lung = tested on: DMS 273 small cell lung
SK-MEL-5 melanoma = tested on: SK-MEL-5 melanoma
EKVX NSCLC = tested on: EKVX NSCLC
HCT-116 colon = tested on: HCT-116 colon
SNB-78 CNS = tested on: SNB-78 CNS
A498 renal = tested on: A498 renal
RXF 393 renal = tested on: RXF 393 renal
SN12C renal = tested on: SN12C renal
KM12 colon = tested on: KM12 colon
SNB-75 CNS = tested on: SNB-75 CNS
UACC-257 melanoma = tested on: UACC-257 melanoma
SF-295 CNS = tested on: SF-295 CNS
U251 CNS = tested on: U251 CNS
HL-60(TB) leukemia = tested on: HL-60(TB) leukemia
SNB-19 CNS = tested on: SNB-19 CNS
K-562 leukemia = tested on: K-562 leukemia
NCI-H23 lung = tested on: NCI-H23 lung
SR leukemia = tested on: SR leukemia
LXFL 529 NSCLC = tested on: LXFL 529 NSCLC
OVCAR-8 ovarian = tested on: OVCAR-8 ovarian
COLO 205 colon = tested on: COLO 205 colon
RPMI-8226 leukemia = tested on: RPMI-8226 leukemia
CCRF-CEM leukemia = tested on: CCRF-CEM leukemia
786-0 renal = tested on: 786-0 renal
NCI-H226 lung = tested on: NCI-H226 lung
ACHN renal = tested on: ACHN renal
A549 NSCLC = tested on: A549 NSCLC
SK-MEL-28 melanoma = tested on: SK-MEL-28 melanoma
NCI-H460 lung = tested on: NCI-H460 lung
DLD-1 colon = tested on: DLD-1 colon
UACC-62 melanoma = tested on: UACC-62 melanoma
HOP-18 NSCLC = tested on: HOP-18 NSCLC
IGROV1 ovarian = tested on: IGROV1 ovarian
SF-268 CNS = tested on: SF-268 CNS
HCT-15 colon = tested on: HCT-15 colon
OVCAR-4 ovarian = tested on: OVCAR-4 ovarian
SF-539 CNS = tested on: SF-539 CNS
OVCAR-5 ovarian = tested on: OVCAR-5 ovarian
HOP-92 NSCLC = tested on: HOP-92 NSCLC
DMS 114 small cell lung = tested on: DMS 114 small cell lung
MOLT-4 leukemia = tested on: MOLT-4 leukemia
LOX IMVI melanoma = tested on: LOX IMVI melanoma
KM20L2 colon = tested on: KM20L2 colon
UO-31 renal = tested on: UO-31 renal
SK-OV-3 ovarian = tested on: SK-OV-3 ovarian
SK-MEL-2 melanoma = tested on: SK-MEL-2 melanoma
MALME-3M melanoma = tested on: MALME-3M melanoma
OVCAR-3 ovarian = tested on: OVCAR-3 ovarian
TK-10 renal = tested on: TK-10 renal

## Cn1nc(-c2cccc(-c3nn(C)c(=NCCO)s3)n2)sc1=NCCO
SW-620 colon
  TGI: > 100 µM
NCI-H522 lung
  TGI: > 100 µM
HT29 colon
  TGI: > 100 µM
HOP-62 NSCLC
  TGI: > 100 µM
M19-MEL melanoma
  TGI: > 100 µM
M14 melanoma
  TGI: > 100 µM
DMS 273 small cell lung
  TGI: > 100 µM
SK-MEL-5 melanoma
  TGI: > 100 µM
EKVX NSCLC
  TGI: > 100 µM
HCT-116 colon
  TGI: > 100 µM
SNB-78 CNS
  TGI: > 100 µM
A498 renal
  TGI: > 100 µM
RXF 393 renal
  TGI: > 100 µM
SN12C renal
  TGI: > 100 µM
KM12 colon
  TGI: > 100 µM
SNB-75 CNS
  TGI: > 100 µM
UACC-257 melanoma
  TGI: > 100 µM
SF-295 CNS
  TGI: > 100 µM
U251 CNS
  TGI: > 100 µM
HL-60(TB) leukemia
  TGI: > 100 µM
SNB-19 CNS
  TGI: > 100 µM
K-562 leukemia
  TGI: > 100 µM
NCI-H23 lung
  TGI: > 100 µM
SR leukemia
  TGI: > 100 µM
LXFL 529 NSCLC
  TGI: > 100 µM
OVCAR-8 ovarian
  TGI: > 100 µM
COLO 205 colon
  TGI: > 100 µM
RPMI-8226 leukemia
  TGI: > 100 µM
CCRF-CEM leukemia
  TGI: > 100 µM
786-0 renal
  TGI: > 100 µM
NCI-H226 lung
  TGI: > 100 µM
ACHN renal
  TGI: > 100 µM
A549 NSCLC
  TGI: > 100 µM
SK-MEL-28 melanoma
  TGI: > 100 µM
NCI-H460 lung
  TGI: > 100 µM
DLD-1 colon
  TGI: > 100 µM
UACC-62 melanoma
  TGI: > 100 µM
HOP-18 NSCLC
  TGI: > 100 µM
IGROV1 ovarian
  TGI: > 100 µM
SF-268 CNS
  TGI: > 100 µM
HCT-15 colon
  TGI: > 100 µM
OVCAR-4 ovarian
  TGI: > 100 µM
SF-539 CNS
  TGI: > 100 µM
OVCAR-5 ovarian
  TGI: > 100 µM
HOP-92 NSCLC
  TGI: > 100 µM
DMS 114 small cell lung
  TGI: > 100 µM
MOLT-4 leukemia
  TGI: > 100 µM
LOX IMVI melanoma
  TGI: > 100 µM
KM20L2 colon
  TGI: > 100 µM

## CN(C)CC/C(=N\Nc1ccc(Cl)cc1)c1ccccc1
SW-620 colon
  TGI: 2.37 µM
NCI-H522 lung
  TGI: 3.78 µM
HT29 colon
  TGI: 3 µM
HOP-62 NSCLC
  TGI: 3.62 µM
M19-MEL melanoma
  TGI: 3.2 µM
M14 melanoma
  TGI: 3.17 µM
DMS 273 small cell lung
  TGI: 1.61 µM
UO-31 renal
  TGI: 0.986 µM
SK-MEL-5 melanoma
  TGI: 3.27 µM
EKVX NSCLC
  TGI: 4.35 µM
HCT-116 colon
  TGI: 2.6 µM
SNB-78 CNS
  TGI: 5.13 µM
A498 renal
  TGI: 10.8 µM
RXF 393 renal
  TGI: 10.3 µM
SK-OV-3 ovarian
  TGI: 7.04 µM
SN12C renal
  TGI: 4.13 µM
KM12 colon
  TGI: 2.93 µM
SNB-75 CNS
  TGI: 6.45 µM
UACC-257 melanoma
  TGI: 3.35 µM
SF-295 CNS
  TGI: 1.25 µM
U251 CNS
  TGI: 1.74 µM
HL-60(TB) leukemia
  TGI: 2.17 µM
SNB-19 CNS
  TGI: 6.91 µM
SK-MEL-2 melanoma
  TGI: 4.58 µM
K-562 leukemia
  TGI: 1.03 µM
NCI-H23 lung
  TGI: 3.93 µM
SR leukemia
  TGI: 4.4 µM
LXFL 529 NSCLC
  TGI: 0.373 µM
OVCAR-8 ovarian
  TGI: 11.5 µM
COLO 205 colon
  TGI: 3.27 µM
RPMI-8226 leukemia
  TGI: 3.13 µM
MALME-3M melanoma
  TGI: 3.95 µM
CCRF-CEM leukemia
  TGI: 11.2 µM
786-0 renal
  TGI: 3.88 µM
ACHN renal
  TGI: 2.59 µM
A549 NSCLC
  TGI: 3.29 µM
SK-MEL-28 melanoma
  TGI: 2.92 µM
NCI-H460 lung
  TGI: 2.45 µM
DLD-1 colon
  TGI: 3.74 µM
UACC-62 melanoma
  TGI: 2.07 µM
HOP-18 NSCLC
  TGI: 7.78 µM
IGROV1 ovarian
  TGI: 4.67 µM
SF-268 CNS
  TGI: 3.67 µM
HCT-15 colon
  TGI: 1.23 µM
OVCAR-4 ovarian
  TGI: 7.05 µM
OVCAR-3 ovarian
  TGI: 3.15 µM
TK-10 renal
  TGI: 2.32 µM
SF-539 CNS
  TGI: 3.65 µM
OVCAR-5 ovarian
  TGI: 2.66 µM
DMS 114 small cell lung
  TGI: 4.45 µM
MOLT-4 leukemia
  TGI: 10.2 µM
LOX IMVI melanoma
  TGI: 0.691 µM
KM20L2 colon
  TGI: 0.349 µM
